The test deals with DPIV (Homo sapiens, UniProt P27487). The experiment in a line: DPIV Inhibition Assay. It is filed as biochemical. The note with it: pH 8; substrate L-alanyl-L-proline-para-nitroanilide; inhibitor stood in pH 8 buffer overnight; absorbance 410 nm. How it is done:
The inhibitor solution was prepared by dissolving 3-5 mg of inhibitor in pH 2 solution (0.01 N HCl), such that the concentration of the solution was equal to 1 mg/10 μL. A 10 μL sample of this solution was then added to 990 μL of pH 8 buffer (0.1 M HEPES, 0.14 M NaCl), and the solution was allowed to stand at room temperature overnight.
The enzyme solution was prepared by diluting 20 μL of DPIV (concentration 2.5 μM) into 40 mL of pH 8 buffer.
The substrate solution was prepared by dissolving 2.0 mg of L-alanyl-L-proline-para-nitroanilide into 20 mL of pH 8 buffer.
250 μL of enzyme solution was added to well #B1 to #H1, #A2 to #H2, and #A3 to #H3 of a 96 well plate, while well #Al received 250 μL of pH 8 buffer instead of enzyme solution. 90 μL of pH 8 buffer was then added to column 5 (from well #A5 to #H5).
A 1:10 dilution was then performed by adding inhibitor solution to #A5 and the solution was mixed well before transferring 10 μL of this solution from #A5 to #B5. The solution in #B5 was then mixed well before transferring 10 μL of this solution from #B5 to #C5. The solution in #C5 was then mixed well before transferring 10 μL of this solution from #C5 to #D5. The solution in #D5 was then mixed well before transferring 10 μL of this solution from #D5 to #E5. The solution in #E5 was then mixed well before transferring 10 μL of this solution from #E5 to #F5. The solution in #F5 was then mixed well before transferring 10 μL of this solution from #F5 to #G5. The solution in #G5 was then mixed well before transferring 10 μL of this solution from #G5 to #H5.
A 30 μL aliquot was then transferred from #H5 to #H3 for row H, and the contents were mixed well. The analogous procedure was repeated for rows G, F, E, D, C, B, and A sequentially. The plate was then shaken on a plate shaker for 5 minutes before allowing the plate to incubate at room temperature for an additional 5 minutes.
Once the plate had been allowed to incubate, 30 μL of substrate was added to each well except well #A1. The plate was then placed on a plate shaker for 5 minutes before allowing the plate to incubate at room temperature for 25 minutes. The absorbance was then immediately read at a wavelength of 410 nm.

Molecules are shown by their SMILES.

Chain of DPIV (P27487 whole entry): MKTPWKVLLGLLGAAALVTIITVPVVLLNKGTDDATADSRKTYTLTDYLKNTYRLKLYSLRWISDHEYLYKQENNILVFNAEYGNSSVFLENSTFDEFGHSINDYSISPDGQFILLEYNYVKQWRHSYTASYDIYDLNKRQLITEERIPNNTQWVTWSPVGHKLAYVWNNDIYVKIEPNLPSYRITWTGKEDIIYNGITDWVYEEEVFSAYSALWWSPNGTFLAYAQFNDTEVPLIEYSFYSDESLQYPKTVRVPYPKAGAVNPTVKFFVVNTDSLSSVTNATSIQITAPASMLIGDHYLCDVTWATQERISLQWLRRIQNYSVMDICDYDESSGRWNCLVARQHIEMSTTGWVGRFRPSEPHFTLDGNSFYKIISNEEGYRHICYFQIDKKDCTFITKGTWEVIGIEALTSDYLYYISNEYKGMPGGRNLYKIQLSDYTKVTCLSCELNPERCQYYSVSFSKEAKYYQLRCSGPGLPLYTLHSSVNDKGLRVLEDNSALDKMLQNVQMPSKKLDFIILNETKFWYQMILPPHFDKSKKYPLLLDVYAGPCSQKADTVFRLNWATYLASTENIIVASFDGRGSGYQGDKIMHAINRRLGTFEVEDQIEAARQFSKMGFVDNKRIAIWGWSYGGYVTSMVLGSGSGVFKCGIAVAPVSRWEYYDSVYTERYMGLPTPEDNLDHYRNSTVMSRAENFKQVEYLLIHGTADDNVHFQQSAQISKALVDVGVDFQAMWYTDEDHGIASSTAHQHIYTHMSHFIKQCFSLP

As usually defined, the IC50 is the point on the concentration scale where inhibition reaches its midpoint. With `C[C@H](C#N)N1CCC(N)C1=O` (stereo partly drawn) [A], 11000 nM corresponded to half-maximal inhibition (IC50).

`C[C@@H](B(O)O)N1CCC(N)C1=O` (stereo partly drawn) [B]: the IC50 stood at 40 nM.

Regarding `C[C@H](B(O)O)N1CCC(N)C1=O` (stereo partly drawn) [C], it took 340 nM to reach half-maximal inhibition (IC50).

In turn, `CC[C@H](B(O)O)N1CC[C@](N)(CC)C1=O` [Compound I] came in with a 50% inhibitory concentration (IC50) of 25 nM.

`CC(B(O)O)N1CCC(N)C1=O` (stereo not drawn) [D] had an IC50 of 34 nM.

Regarding `CC(B(O)O)N1CCC(C)(N)C1=O` (stereo not drawn) [E], the IC50 was found to be 23 nM.

Take `C[C@@H](B(O)O)N1CC[C@](C)(N)C1=O` [F]: the IC50 came to 69000 nM.

`C[C@@H](B(O)O)N1CC[C@@](C)(N)C1=O` [G] registered an IC50 of 6.7 nM.

`CCCC[C@@]1(N)CCN([C@@H](C)B(O)O)C1=O` [J] yielded an IC50 of 1.9 nM.

`C[C@@H](B(O)O)N1CC[C@](N)(CC(=O)O)C1=O` [K] gave an IC50 of 36 nM.

Consider `C[C@@H](B(O)O)N1CC[C@](N)(Cc2ccccc2)C1=O` [M], for which the IC50 was 2.6 nM.

As for `CC[C@@H](B(O)O)N1CC[C@](N)(Cc2ccccc2)C1=O` [N], the half-maximal inhibitory concentration (IC50) amounted to 3 nM.

On to `CN[C@]1(Cc2ccccc2)CCN([C@@H](C)B(O)O)C1=O` [O], for which half-maximal inhibition (IC50) was put at 630 nM.

Turning to `C[C@@H](B(O)O)N1CC[C@](N)(Cc2cccc3ccccc23)C1=O` [P], the IC50 turned out to be 2.1 nM.

For the compound `C[C@@H](B(O)O)N1CC[C@]2(CCCN2)C1=O` [Q], the IC50 amounted to 9.9 nM.

These data come from US20090209491A1, “Lactams as conformationally constrained peptidomimetic inhibitors” (Trustees of Tufts College, priority 2004, published 2009).
